MIC data for eight molecules are collected here from DBAASP.

Among the test systems are Pseudomonas aeruginosa 9; Escherichia coli AB94012; Escherichia coli; Bacillus anthracis; Staphylococcus aureus; Bacillus cereus.
Assay in all cases: ≥ marks a high value that may be exact or a test limit, other limits are often not marked, values filed in µg/mL are converted to µM
The subject of assay [1] is Staphylococcus aureus C623.
Assay [2] has as its system Escherichia coli ESBL 64771.
The subject of assay [3] is Enterobacter cloacae 218R.
Assay [4] has as its system Pseudomonas aeruginosa 213.
For assay [5], the system named is Pseudomonas aeruginosa PAO1 H103.
In assay [6] the test system is Pseudomonas aeruginosa H1030.
For assay [7], the system named is Pseudomonas aeruginosa 198.
Assay [8] has as its system Enterococcus faecalis ATCC 29212.
The test system of assay [9] is Enterococcus faecium t62764.
Assay [10] relates to Klebsiella pneumoniae ESBL 61962.
Assay [11] has as its system Escherichia coli ESBL 63103.
Assay [12] relates to Enterococcus faecalis f43559.
For assay [13], the system named is Enterococcus faecalis W61950.
Assay [14] has as its system Enterococcus faecium mic80.
The subject of assay [15] is Pseudomonas aeruginosa LES400.
Assay [16] has as its system Pseudomonas aeruginosa H1027.
Assay [17] relates to Stenotrophomonas maltophilia ATCC 13637.
For assay [18], the system named is Klebsiella pneumoniae ESBL 63575.
The subject of assay [19] is Staphylococcus aureus ATCC 25923.
The test system of assay [20] is Batrachochytrium dendrobatidis JEL-197.
Assay [21] has as its system Escherichia coli ATCC 11219.
Assay [22] has as its system Salmonella enterica subsp. enterica serovar Typhimurium ATCC 14028.
Assay [23] concerns Klebsiella pneumoniae ATCC 10031.
Assay [24] relates to Staphylococcus aureus ATCC 6538.
For assay [25], the system named is Pseudomonas aeruginosa ATCC 13388.
Assay [26] deals with Staphylococcus aureus P1374.
Assay [27] relates to Escherichia coli ATCC 25922.
In assay [28] the test system is Staphylococcus aureus P1381.
Assay [29] deals with Staphylococcus aureus AB94004.
The test system of assay [30] is Pseudomonas aeruginosa ATCC 9027.
For assay [31], the system named is Pseudomonas aeruginosa AB93066.

≈ marks a conversion by molar mass, not a printed value.

A word on the MIC: it is the lowest concentration that inhibits growth of the organism. Regarding `CC[C@H](C)[C@H](NC(=O)[C@H](CC(N)=O)NC(=O)[C@H](CCCCN)NC(=O)[C@H](Cc1ccccc1)NC(=O)[C@H](CCCN=C(N)N)NC(=O)[C@H](Cc1c[nH]c2ccccc12)NC(=O)[C@H](C)N)C(=O)N[C@@H](CCCN=C(N)N)C(=O)N[C@@H](CCCCN)C(=O)O` [AWRFKNIRK], the MIC in [1], in assay [2], in assay [3], in assay [4], in assay [5] and in [6] was ≥ 149 µM throughout. The minimal inhibitory concentration (MIC) is ≥ 149 µM in the assay on Pseudomonas aeruginosa 9; ≥ 149 µM in assay [7]; > 149 µM in [8]; ≥ 149 µM in [9]; ≥ 149 µM in assay [10]; ≥ 149 µM in [11]. The MIC is ≥ 149 µM in assay [12]; ≥ 149 µM in assay [13]; ≥ 149 µM in assay [14]; ≥ 149 µM in [15]; ≥ 74.7 µM in [16]; ≥ 149 µM in assay [17]. In addition, the MIC was ≥ 149 µM in [18] and 149 µM (≈ 182 µg/mL) in assay [19].

With `CC[C@H](C)[C@H](NC(=O)[C@H](CC(C)C)NC(=O)[C@H](CCCCN)NC(=O)[C@@H]1CCCN1C(=O)[C@@H](NC(=O)[C@H](CC(C)C)NC(=O)[C@H](CC(N)=O)NC(=O)[C@H](C)NC(=O)[C@H](C)NC(=O)[C@H](CC(C)C)NC(=O)CNC(=O)[C@H](C)NC(=O)[C@H](CC(C)C)NC(=O)[C@@H](NC(=O)[C@@H]1CCCN1C(=O)[C@H](CC(C)C)NC(=O)[C@@H](N)Cc1ccccc1)[C@@H](C)CC)C(C)C)C(=O)N[C@H]1CSSC[C@@H](C(=O)O)NC(=O)[C@H](CCCCN)NC(=O)[C@H](CCCCN)NC(=O)[C@H]([C@@H](C)O)NC(=O)[C@H]([C@@H](C)CC)NC(=O)[C@H](CO)NC1=O` [FLPILAGLAANLVPKLICSITKKC], the minimum inhibitory concentration (MIC) in assay [20] worked out at 12.5 µM (≈ 31.6 µg/mL).

Regarding `CC[C@H](C)[C@H](NC(=O)CN)C(=O)N[C@@H](Cc1cnc[nH]1)C(=O)N[C@@H](CC(=O)O)C(=O)N[C@H](C(=O)N[C@@H](CC(C)C)C(=O)N[C@@H](CCCCN)C(=O)N[C@@H](Cc1ccc(O)cc1)C(=O)NCC(=O)N[C@@H](CCCCN)C(=O)N1CCC[C@H]1C(=O)N[C@@H](CO)C(N)=O)[C@@H](C)CC` [GIHDILKYGKPS], the MIC worked out at 5 µM (≈ 6.63 µg/mL) in [21]; 20 µM (≈ 26.5 µg/mL) in [22]; 10 µM (≈ 13.3 µg/mL) in assay [23]; 10 µM (≈ 13.3 µg/mL) in assay [24]; 30 µM (≈ 39.8 µg/mL) in assay [25].

As to `CC[C@H](C)[C@H](NC(=O)CN)C(=O)N[C@@H](Cc1cnc[nH]1)C(=O)N[C@@H](CCCN=C(N)N)C(=O)N[C@H](C(=O)N[C@@H](CC(C)C)C(=O)N[C@@H](CCCCN)C(=O)N[C@@H](Cc1ccc(O)cc1)C(=O)NCC(=O)N[C@@H](CCCCN)C(=O)N1CCC[C@H]1C(=O)N[C@@H](CO)C(N)=O)[C@@H](C)CC` [GIHRILKYGKPS], the minimal inhibitory concentration (MIC) in assay [21] was 2.2 µM (≈ 3.01 µg/mL); in assay [22] it was 3 µM (≈ 4.1 µg/mL); in [23], 3 µM (≈ 4.1 µg/mL); in assay [24], 10 µM (≈ 13.7 µg/mL); in assay [25], 10 µM (≈ 13.7 µg/mL).

With `CC[C@H](C)[C@H](NC(=O)[C@H](CO)NC(=O)[C@H](CCCCN)NC(=O)[C@@H](NC(=O)CNC(=O)[C@H](CCCCN)NC(=O)[C@H](Cc1c[nH]c2ccccc12)NC(=O)[C@H](CC(C)C)NC(=O)[C@H](CCCCN)NC(=O)CNC(=O)[C@H](CC(C)C)NC(=O)[C@@H](NC(=O)[C@@H](N)CCCCN)[C@@H](C)CC)C(C)C)C(=O)N[C@@H](Cc1ccccc1)C(N)=O` [KILGKLWKGVKSIF], the minimal inhibitory concentration (MIC) came out at 3.87 µM (≈ 6.25 µg/mL) in assay [26]; 30.9 µM (≈ 50 µg/mL) in assay [27]; 3.87 µM (≈ 6.25 µg/mL) in assay [28]; 3.87 µM (≈ 6.25 µg/mL) in assay [29]; 30.9 µM (≈ 50 µg/mL) in assay [30]; 30.9 µM (≈ 50 µg/mL) in assay [31]. The figures for the MIC (in assay [24]; in [19]; against Escherichia coli AB94012) were 7.73 µM (≈ 12.5 µg/mL), 7.73 µM (≈ 12.5 µg/mL) and 15.5 µM (≈ 25 µg/mL), respectively.

For `CC[C@H](C)[C@H](NC(=O)[C@H](CCCCN)NC(=O)[C@H](Cc1c[nH]c2ccccc12)NC(=O)[C@@H](N)CCCCN)C(=O)N[C@@H](Cc1ccccc1)C(=O)N[C@@H](CCCN=C(N)N)C(=O)N[C@@H](CCCN=C(N)N)C(=O)N[C@@H](Cc1c[nH]c2ccccc12)C(=O)N[C@@H](Cc1c[nH]c2ccccc12)C(=O)O` [KWKIFRRWW], the MIC came to 1.57 µM (≈ 2.2 µg/mL) in [1]; 6.05 µM (≈ 8.5 µg/mL) in [2]; 3.06 µM (≈ 4.3 µg/mL) in assay [3]; 24.2 µM (≈ 34 µg/mL) in assay [4]; 6.05 µM (≈ 8.5 µg/mL) in [5]; 24.2 µM (≈ 34 µg/mL) in assay [6]. In addition, the minimum inhibitory concentration (MIC) was 12.1 µM (≈ 17 µg/mL) against Pseudomonas aeruginosa 9; 12.1 µM (≈ 17 µg/mL) in assay [7]; 12.1 µM (≈ 17 µg/mL) in [8]; 3.06 µM (≈ 4.3 µg/mL) in [9]; ≥ 98.2 µM in assay [10]; 12.1 µM (≈ 17 µg/mL) in assay [11]. Further, the MIC in assay [12] is ≥ 49.1 µM; in [13] it was ≥ 49.1 µM; in [14], 12.1 µM (≈ 17 µg/mL); in [15] it was 6.05 µM (≈ 8.5 µg/mL); in [16] it was 1.57 µM (≈ 2.2 µg/mL); in assay [17], 0.782 µM (≈ 1.1 µg/mL). Further, the values for the minimal inhibitory concentration (MIC) in [18] and in [19] were ≥ 49.1 µM and 1.57 µM (≈ 2.2 µg/mL), respectively.

For `CC[C@H](C)[C@H](NC(=O)[C@H](CC(C)C)NC(=O)[C@H](C)NC(=O)[C@@H]1CCCN1C(=O)[C@H](C)NC(=O)[C@@H](NC(=O)[C@H](CCCCN)NC(=O)[C@@H](N)CCCN=C(N)N)C(C)C)C(=O)N[C@@H](CCCCN)C(=O)N[C@@H](CO)C(=O)N[C@@H](Cc1ccccc1)C(=O)N[C@H](C(=O)N[C@@H](Cc1ccccc1)C(=O)N[C@@H](CC(C)C)C(=O)N[C@@H](Cc1ccccc1)C(=O)N[C@@H](CCCCN)C(=O)N[C@@H](Cc1ccccc1)C(=O)N[C@@H](CCCCN)C(=O)N[C@@H](CCCCN)C(=O)NCC(=O)O)C(C)C` [RKVAPALIKSFVFLFKFKKG], the MIC in the assay on Escherichia coli was > 110 µM; in the assay with Bacillus anthracis, ≥ 110 µM; against Staphylococcus aureus it was 55.1 µM (≈ 128 µg/mL); against Bacillus cereus it was ≥ 110 µM.

For the molecule `CC(C)C[C@H](NC(=O)[C@H](C)NC(=O)[C@H](CO)NC(=O)[C@H](Cc1ccccc1)NC(=O)[C@@H](NC(=O)[C@H](CO)NC(=O)[C@@H]1CCCN1C(=O)[C@@H](NC(=O)[C@@H](NC(=O)[C@H](CCCCN)NC(=O)[C@H](CO)NC(=O)[C@H](C)NC(=O)[C@H](CC(C)C)NC(=O)[C@H](CCCCN)NC(=O)[C@H](Cc1ccccc1)NC(=O)[C@@H](NC(=O)[C@H](Cc1ccccc1)NC(=O)[C@@H](N)CO)C(C)C)C(C)C)C(C)C)C(C)C)C(=O)N[C@H](C(=O)N[C@@H](CCCN=C(N)N)C(=O)O)[C@@H](C)O` [SFVFKLASKVVPSVFSALTR], the MIC in the assay on Escherichia coli is 117 µM; in the assay on Bacillus anthracis, ≥ 58.6 µM; against Staphylococcus aureus, 117 µM; with Bacillus cereus it was ≥ 117 µM.
